Results on one compound are retold here after patent US4863748A, “Dietary products and uses comprising methylsulfonylmethane” (priority 1986, dated 1989).

One data set has as its system eye. Nature of the data set: Inflammation of the eye following accidental injury (Example 14). As to conditions: 15% solution in isotonic saline. The class given is in vivo, human. The text has this:
A 15% solution of methylsulfonylmethane in isotonic saline was a soothing treatment for the eye following accidental injury due to particulate matter in the eye as dust or pollen.

In the next data set the test system is Giardia lamblia. Nature of the data set: Treatment of Giardia infection in a subject (Example 28(b)). The class given is in vivo, human. As to conditions: 500 mg orally three times/24 hours × 14 days. The protocol: One subject with confirmed Giardia, apparently contacted from contaminated water in a primitive area, was given 500 mg of methylsulfonylmethane orally three times/24 hours×14 days. By the eighth day they were asymptomatic.

In the next data set the test system is skin. Briefly: Effect on skin tissue. As to conditions: in vivo. An excerpt:
Studies to date indicate that it is desirable that animals ingest about 0.5-1.0 milligram/kg body weight/day of methylsulfonylmethane to maintain optimum good health. However, any lower level will serve some benefit. Higher levels are either stored in the body as a sulfur reserve, provide a sufficient concentration to optimize synthesis of the multitude of required sulfur containing biomolecules, or simply are excreted as by the renal pathway or through the skin.

For data set [1], the system named is Streptococcus thermophilus. Briefly: In vitro antibacterial action. The class given is cell-based. An excerpt:
(§1) While not as potent or toxic to microbial populations as specific drug agents, by reason of its extremely low host systemic toxicity, methylsulfonylmethane contrasts sharply with present antiinfective therapeutants and methodology. It is doubtful if chemical resistance will develop with infective agents controlled by high, but safe, systemic levels of methylsulfonylmethane.

For a further data set, the system named is Leuconostoc citrovorum. Nature of the data set: In vitro antibacterial action. The class given is cell-based.
From the text: as §1

Another data set has as its system Escherichia coli. Nature of the data set: In vitro antibacterial action. The class given is cell-based.
From the text: as §1

The subject of another data set is Staphylococcus aureus. Briefly: In vitro antibacterial action. The class given is cell-based.
From the text: as §1

A further data set has as its system Salmonello typhimurium. Briefly: In vitro antibacterial action. The class given is cell-based.
From the text: as §1

The next data set has as its system mucous membranes. Nature of the data set: Binding of labeled 35-S dimethyl sulfone to mucous membranes by autoradiography. As to conditions: 35-S labeled. An excerpt: 1. Reducing the adverse response to inhalant allergens. This action may be due entirely or in part to a physical blocking action. Labeled 35-S dimethyl sulfone binds tightly to the surface of mucous membranes and by autoradiography, the membranes appears to be coated, as with a paint.

A further data set has as its system leg cramps. Briefly: Night leg cramps in geriatric patient (Example 26). The class given is in vivo, human. Particulars: 10 mg/kg/day. The procedure:
Administer methylsulfonylmethane to a geriatric patient (over 65 years) suffering from chronic night leg cramps at the rate of 10 mg/kg/day, either in tablet or capsule form, as described in parent application Ser. Nos. 418,110, 584,354 or 601,771, or in admixture with one or more foodstuffs ingested daily by the patient, e.g., milk, coffee, tea, cold desserts, etc. Within about 2 days, the leg cramps will diminish in frequency or disappear.

Data set [2] is described as follows: Excretion of methylsulfonylmethane. The class given is in vivo. An excerpt: Orally ingested methylsulfonylmethane is stored to some degree in various organs, presumably banked for future sulfur needs of the body. The skin excretion route is unusual, particularly since about one-third of a given oral dose can be found in the perspiration. Like NaCl, excretion depends somewhat on perspiration rate. The accumulation in and excretion of methylsulfonylmethane from the skin is believed to account for its cosmetic effect, viz., more youthful appearing, pliable, blemish-reduced skin. Chemical and radiolabeled sulfur (35-S) assays can be used to determine the extent to which important biomolecules as heparin, insulin, co-enzyme A and other --SH bearing enzymes, biotin, methionine enkaphalin, human growth factor, hemoglobin, calcitonin, fibrinogen, muscle protein and other compounds derive their thiol (--S--) and disulfide (--S--S--) groups from methylsulfonylmethane and the possible preference of methylsulfonylmethane over S-content amino acids as the donor with such synthesis.

The subject of the next data set is rabbit eye. Briefly: Rabbit eye irritated with sodium lauryl sulfate (Example 14). The class given is in vivo. Particulars: 10% aqueous solution every hour.
In another data set the test system is stress death. Nature of the data set: Stress death in fish (Example 10). The class given is in vivo, Goldfish. Particulars: 2% by weight in feed, 25 fish; control 11 deaths. The procedure:
62 Goldfish, about 2 inches long, were divided into two 31 population lots and placed in acclimated aquariums (2) maintained at 50° F. On receipt of the fish, two small one gallon aquariums were filled with tap water and stablized for 5 days by aeration with an aerator/filter combination connected to a common aquarium air pump. Air delivery during the test period was standardized at 100 ml of air per minute. From a 1 oz. package of "Wardleys" goldfish food two 10 gram samples were removed. One sample was untreated and the other was moistened with about one ml of pure ethanol containing 0.2 gram methylsulfonylmethane in solution. The feed absorbed all the methylsulfonylmethane (the lot after air drying for 48 hours weighed 10.2 grams). Both feeds were pulverized to a coarse powder suitable for feeding small fish.
The 31 fish in each of the two holding aquariums were identified as batch A and batch B. During the acclimatization and test periods the batch A fish were fed 0.5 gram of untreated "Wardleys" food once daily. Batch B fish were fed 0.5 gram of the feed containing the methylsulfonylmethane during the acclimatization and test periods. Neither batch A nor B consumed all of the feed as some eventually collected in the fiberglass filter. However, most of each feeding was consumed in the first 5-10 minutes after delivery. […]

The conditions of data set [3]: cited from earlier work.
The subject of another data set is weight gain. Briefly: Diet supplement in animals (Example 18). The class given is in vivo, laboratory animals, including dogs. An excerpt: A possible explanation for this is that any minor allergic response to the diet was neutralized by the methylsulfonylmethane.
[4] abbreviates: about 60 and about 500 mg/day/kg body wt.

For `CS(C)(=O)=O` [methylsulfonylmethane], the “effect on the eye following accidental injury” value in the data set on eye is “soothing”. In the data set with Giardia lamblia (collected one week apart), the “organism in two stool specimens” value is on record as “free of the organism”. In addition, the “symptoms by the eighth day” value in the data set with Giardia lamblia (one subject) is “asymptomatic”. Also, the “pliability and softness of the skin” value with skin is listed as “improving”. In addition, the “in vitro antibacterial action” value (in data set [1]; with Leuconostoc citrovorum; in the data set on Escherichia coli; in the data set with Staphylococcus aureus; in the data set on Salmonello typhimurium) was “weak” each time. The “binding to the surface of mucous membranes” value in the data set on mucous membranes is recorded as “binds tightly”. In the data set with leg cramps, the “time until leg cramps diminish in frequency or disappear” value is “about 2 days”. The rate of excretion entry in data set [2] (i.v. administration) is recorded as “very rapidly excreted”. Further, in [2] (in vivo), the “excretion of excess amounts (feces, renal pathway, skin)” value was “excreted unchanged”. The “portion of a given oral dose found in the perspiration” value in data set [2] (oral) is “about one-third”. Besides, the “clearing of irritated eye” value in the data set with rabbit eye was “quickly cleared”. For the same compound, the “deaths in aquarium by day ten” value in the data set on stress death is on record as “one”. Further, the motor activity result in [3] (i.p.) was “reduces”. Besides, in data set [3] (rats exposed to 5° C.), the body temperature entry is recorded as “lowers”. Also, the fur quality entry with weight gain (setting [4]) is “improved”. For the same compound, the nail growth entry in the data set on weight gain (setting [4]) was “somewhat faster”. In addition, the “weight gain of immature animals vs controls” value in the data set on weight gain (setting [4]) is “gained weight at a greater rate”. For the same compound, the “weight increases with adult animals” value in the data set with weight gain (comparable feeding experiments) is reported as “not seen”.
